Results as given in patent publication US20220162191A1, “SMALL MOLECULE MODULATORS OF IL-17” (LEO PHARMA A/S, priority 2019, published 2022).

Target: T1, human IL-17AA (Homo sapiens, UniProt Q16552)
T1 construct: host or cells: HEK (human embryonic kidney) cells
T1 sequence (Q16552 24-155) 1: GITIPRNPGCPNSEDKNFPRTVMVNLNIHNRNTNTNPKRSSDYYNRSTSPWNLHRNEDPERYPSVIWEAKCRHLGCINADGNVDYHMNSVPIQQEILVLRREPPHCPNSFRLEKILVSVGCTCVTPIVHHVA
T1 sequence (Q16552 24-155) 2: T1 sequence (Q16552 24-155) 1
Assay: IL-8 release assay in human epithelial keratinocytes adult (HEKa)
Type: cell-based
Settings: 3 ng/ml human IL-17AA + 10 ng/ml human TNFalpha, 68-72 h, IL-8 by HTRF, read-out: Rel EC50 L-8 release assay
In short: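 IL-8 secretion, quantified by HTRF (665/620 nm) as percent of controls, served as the readout after 68–72 h culture of HEKa cells with compound plus IL-17AA (3 ng/ml final) and TNF-alpha (10 ng/ml final). Four-parameter logistic curves gave relative IC50 and Emax.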

`Cc1cnn(C)c1-c1ccc(NC(=O)[C@H](Cc2cc(-c3ccc(=O)n(C(C)C)c3)ccc2Cl)NC(=O)CC2CCC2)cc1` [Example 335, (2S)-3-[2-chloro-5-(1-isopropyl-6-oxo-3-pyridyl)phenyl]-2-[(2-cyclobutylacetyl)amino]-N-[4-(2,4-dimethylpyrazol-3-yl)phenyl]propanamide] and `Cc1cnn(C)c1-c1ccc(NC(=O)[C@H](Cc2cc(-c3ccc(=O)n(C(C)C)c3)ccc2Cl)NC(=O)CC2CC2)cc1` [Example 336, (2S)-3-[2-chloro-5-(1-isopropyl-6-oxo-3-pyridyl)phenyl]-2-[(2-cyclopropylacetyl)amino]-N-[4-(2,4-dimethylpyrazol-3-yl)phenyl]propanamide] fall in the same range of EC50: 100 to 1000 nM for the first, 100 to 1000 nM for the second.

`Cc1cnn(C)c1-c1ccc(NC(=O)[C@H](Cc2cc(-c3ccc(=O)n(C(C)C)c3)ccc2Cl)NC(=O)c2ccon2)cc1` [Example 337, N-[(1S)-1-[[2-chloro-5-(1-isopropyl-6-oxo-3-pyridyl)phenyl]methyl]-2-[4-(2,4-dimethylpyrazol-3-yl)anilino]-2-oxo-ethyl]isoxazole-3-carboxamide] and `Cc1cnn(C)c1-c1ccc(NC(=O)[C@@H](NC(=O)C2(F)CC2)[C@@H]2CCc3ccc(-c4cc(C)c(=O)n(C(C)C)c4)cc32)cc1` [Example 355, N-[(1S)-2-[4-(2,4-dimethylpyrazol-3-yl)anilino]-1-[(1R)-6-(1-isopropyl-5-methyl-6-oxo-3-pyridyl)indan-1-yl]-2-oxo-ethyl]-1-fluoro-cyclopropanecarboxamide] fall in the same range of EC50: 100 to 1000 nM for the first, 100 to 1000 nM for the second.

First: Cc1n[nH]c(C)c1-c1ccc(NC(=O)[C@H](NC(=O)C2(F)CC2)[C@H](C)c2cccc(-c3ccnc(N4C[C@@H]5C[C@H]4CO5)c3)c2)cc1 [Example 340, N-[(1R,2R)-1-[[4-(3,5-dimethyl-1H-pyrazol-4-yl)phenyl]carbamoyl]-2-[3-[2-[(1S,4S)-2-oxa-5-azabicyclo[2.2.1]heptan-5-yl]-4-pyridyl]phenyl]propyl]-1-fluoro-cyclopropanecarboxamide]
Second: Cc1n[nH]c(C)c1-c1ccc(NC(=O)[C@@H](NC(=O)C2(F)CC2)[C@H](C)c2cccc(-c3ccnc(N4C[C@@H]5C[C@H]4CO5)c3)c2)cc1 [Example 341, N-[(1S,2R)-1-[[4-(3,5-dimethyl-1H-pyrazol-4-yl)phenyl]carbamoyl]-2-[3-[2-[(1S,4S)-2-oxa-5-azabicyclo[2.2.1]heptan-5-yl]-4-pyridyl]phenyl]propyl]-1-fluoro-cyclopropanecarboxamide]
The EC50 of the first is higher: 100 to 1000 nM for the first, < 100 nM for the second.

First: Cc1cnn(C)c1-c1ccc(NC(=O)[C@@H](NC(=O)C2(F)CC2)[C@H](C)c2cccc(-c3cc(N4C[C@@H]5C[C@H]4CO5)ncn3)c2)cc1 [Example 342, N-[(1S,2R)-1-[[4-(2,4-dimethylpyrazol-3-yl)phenyl]carbamoyl]-2-[3-[6-[(1S,4S)-2-oxa-5-azabicyclo[2.2.1]heptan-5-yl]pyrimidin-4-yl]phenyl]propyl]-1-fluoro-cyclopropanecarboxamide]
Second: Cc1cnn(C)c1-c1ccc(NC(=O)[C@@H](NC(=O)C2(F)CC2)[C@@H](c2cccc(-c3cc(N4C[C@@H]5C[C@H]4CO5)ncn3)c2)C2CC2)cc1 [Example 352, N-[(1S)-1-[(R)-cyclopropyl-[3-[6-[(1S,4S)-2-oxa-5-azabicyclo[2.2.1]heptan-5-yl]pyrimidin-4-yl]phenyl]methyl]-2-[4-(2,4-dimethylpyrazol-3-yl)anilino]-2-oxo-ethyl]-1-fluoro-cyclopropanecarboxamide]
The EC50 of the first is higher: > 1000 nM for the first, 100 to 1000 nM for the second.

First: Cc1cnn(C)c1-c1ccc(NC(=O)[C@@H](NC(=O)C2(F)CC2)[C@H](C)c2cccc(-c3cncc(N4C[C@@H]5C[C@H]4CO5)n3)c2)cc1 [Example 343, N-[(1S,2R)-1-[[4-(2,4-dimethylpyrazol-3-yl)phenyl]carbamoyl]-2-[3-[6-[(1S,4S)-2-oxa-5-azabicyclo[2.2.1]heptan-5-yl]pyrazin-2-yl]phenyl]propyl]-1-fluoro-cyclopropanecarboxamide]
Second: Cc1cnn(C)c1-c1ccc(NC(=O)[C@@H](NC(=O)C2(F)CC2)[C@@H](c2cccc(-c3cncc(N4C[C@@H]5C[C@H]4CO5)n3)c2)C2CC2)cc1 [Example 350, N-[(1S)-1-[(R)-cyclopropyl-[3-[6-[(1S,4S)-2-oxa-5-azabicyclo[2.2.1]heptan-5-yl]pyrazin-2-yl]phenyl]methyl]-2-[4-(2,4-dimethylpyrazol-3-yl)anilino]-2-oxo-ethyl]-1-fluoro-cyclopropanecarboxamide]
The EC50 of the first is higher: 100 to 1000 nM for the first, < 100 nM for the second. The second is the more potent here.

First: Cc1cnn(C)c1-c1ccc(NC(=O)[C@@H](NC(=O)OC(C)(C)C)[C@@H](c2cccc(-c3ccnc(N4C[C@@H]5C[C@H]4CO5)c3)c2)C2CC2)cc1 [Example 346, tert-butyl N-[(1S)-1-[(R)-cyclopropyl-[3-[2-[(1S,4S)-2-oxa-5-azabicyclo[2.2.1]heptan-5-yl]-4-pyridyl]phenyl]methyl]-2-[4-(2,4-dimethylpyrazol-3-yl)anilino]-2-oxo-ethyl]carbamate]
Second: Cc1cnn(C)c1-c1ccc(NC(=O)[C@@H](NC(=O)c2ccnn2C)[C@@H](c2cccc(-c3cc(N4C[C@@H]5C[C@H]4CO5)ncn3)c2)C2CC2)cc1 [Example 351, N-[(1S)-1-[(R)-cyclopropyl-[3-[6-[(1S,4S)-2-oxa-5-azabicyclo[2.2.1]heptan-5-yl]pyrimidin-4-yl]phenyl]methyl]-2-[4-(2,4-dimethylpyrazol-3-yl)anilino]-2-oxo-ethyl]-2-methyl-pyrazole-3-carboxamide]
The EC50 of the first is lower: < 100 nM for the first, 100 to 1000 nM for the second. The first is the more potent here.

`Cc1cnn(C)c1-c1ccc(NC(=O)[C@@H](NC(=O)C2(F)CC2)[C@@H](c2cccc(-c3cncc(N4C[C@@H]5C[C@H]4CO5)c3)c2)C2CC2)cc1` [Example 347, N-[(1S)-1-[(R)-cyclopropyl-[3-[5-[(1S,4S)-2-oxa-5-azabicyclo[2.2.1]heptan-5-yl]-3-pyridyl]phenyl]methyl]-2-[4-(2,4-dimethylpyrazol-3-yl)anilino]-2-oxo-ethyl]-1-fluoro-cyclopropanecarboxamide] and `Cc1cnn(C)c1-c1ccc(NC(=O)[C@@H](NC(=O)c2ccnn2C)[C@@H](c2cccc(-c3cncc(N4C[C@@H]5C[C@H]4CO5)c3)c2)C2CC2)cc1` [Example 348, N-[(1S)-1-[(R)-cyclopropyl-[3-[5-[(1S,4S)-2-oxa-5-azabicyclo[2.2.1]heptan-5-yl]-3-pyridyl]phenyl]methyl]-2-[4-(2,4-dimethylpyrazol-3-yl)anilino]-2-oxo-ethyl]-2-methyl-pyrazole-3-carboxamide] cannot be ordered by EC50: < 100 nM for the first, < 100 nM for the second.

Compared with `Cc1cnn(C)c1-c1ccc(NC(=O)[C@@H](NC(=O)c2ccnn2C)[C@@H](c2cccc(-c3cncc(N4C[C@@H]5C[C@H]4CO5)n3)c2)C2CC2)cc1` [Example 349, N-[(1S)-1-[(R)-cyclopropyl-[3-[6-[(1S,4S)-2-oxa-5-azabicyclo[2.2.1]heptan-5-yl]pyrazin-2-yl]phenyl]methyl]-2-[4-(2,4-dimethylpyrazol-3-yl)anilino]-2-oxo-ethyl]-2-methyl-pyrazole-3-carboxamide], `Cc1cnn(C)c1-c1ccc(NC(=O)[C@@H](NC(=O)C2(F)CC2)[C@@H]2CCc3ccc(-c4ccnc(N5CC[C@H](O)C5)c4)cc32)cc1` [Example 359, N-[(1S)-2-[4-(2,4-dimethylpyrazol-3-yl)anilino]-1-[(1R)-6-[2-[(3S)-3-hydroxypyrrolidin-1-yl]-4-pyridyl]indan-1-yl]-2-oxo-ethyl]-1-fluoro-cyclopropanecarboxamide] is higher in EC50: < 100 nM for the first, 100 to 1000 nM for the second.

`Cc1n[nH]c(C)c1-c1ccc(NC(=O)[C@@H](NC(=O)C2(F)CC2)[C@@H]2CCc3ccc(-c4cc(C(C)C)ncn4)cc32)cc1` [Example 353, N-[(1S)-2-[4-(3,5-dimethyl-1H-pyrazol-4-yl)anilino]-1-[(1R)-6-(6-isopropylpyrimidin-4-yl)indan-1-yl]-2-oxo-ethyl]-1-fluoro-cyclopropanecarboxamide] and `Cc1n[nH]c(C)c1-c1ccc(NC(=O)[C@@H](NC(=O)C2(F)CC2)[C@@H]2CCc3ccc(-c4cc(N5C[C@@H]6C[C@H]5CO6)ncn4)cc32)cc1` [Example 356, N-[(1S)-2-[4-(3,5-dimethyl-1H-pyrazol-4-yl)anilino]-1-[(1R)-6-[6-[(1S,4S)-2-oxa-5-azabicyclo[2.2.1]heptan-5-yl]pyrimidin-4-yl]indan-1-yl]-2-oxo-ethyl]-1-fluoro-cyclopropanecarboxamide] fall in the same range of EC50: 100 to 1000 nM for the first, 100 to 1000 nM for the second.

`Cc1n[nH]c(C)c1-c1ccc(NC(=O)[C@@H](NC(=O)C2(F)CC2)[C@@H]2CCc3ccc(-c4ccnc(N5C[C@@H]6C[C@H]5CO6)c4)cc32)cc1` [Example 354, N-[(1S)-2-[4-(3,5-dimethyl-1H-pyrazol-4-yl)anilino]-1-[(1R)-6-[2-[(1S,4S)-2-oxa-5-azabicyclo[2.2.1]heptan-5-yl]-4-pyridyl]indan-1-yl]-2-oxo-ethyl]-1-fluoro-cyclopropanecarboxamide] and `Cc1ncn(C)c1-c1ccc(NC(=O)[C@@H](NC(=O)C2(F)CC2)[C@@H]2CCc3ccc(-c4ccnc(N5C[C@@H]6C[C@H]5CO6)c4)cc32)cc1O` [Example 358, N-[(1S)-2-[4-(3,5-dimethylimidazol-4-yl)-3-hydroxy-anilino]-1-[(1R)-6-[2-[(1S,4S)-2-oxa-5-azabicyclo[2.2.1]heptan-5-yl]-4-pyridyl]indan-1-yl]-2-oxo-ethyl]-1-fluoro-cyclopropanecarboxamide] cannot be ordered by EC50: < 100 nM for the first, < 100 nM for the second.

`Cc1n[nH]c(C)c1-c1ccc(NC(=O)[C@@H](NC(=O)C2(F)CC2)[C@@H]2CCc3ccc(-c4cc(C)c(=O)n(C(C)C)c4)cc32)cc1` [Example 357, N-[(1S)-2-[4-(3,5-dimethyl-1H-pyrazol-4-yl)anilino]-1-[(1R)-6-(1-isopropyl-5-methyl-6-oxo-3-pyridyl)indan-1-yl]-2-oxo-ethyl]-1-fluoro-cyclopropanecarboxamide] was tested, and the EC50 was < 100 nM.
